Measured values reported in US10030007B2, “Quinazolin-THF-amines as PDE1 inhibitors” (H. Lundbeck A/S, priority 2013, dated 2018).

Assays:
Format in all cases: biochemical
Conditions in all cases: 15 nM tritium labelled cAMP, 1 h at room temperature, SPA beads
[1] = target: PDE1C (Homo sapiens, UniProt Q14123); assay: PDE1 inhibition assay (SPA), PDE1C
Protocol: (§1) PDE1A, PDE1B and PDE1C assays were performed as follows: the assays was performed in 60 μL samples containing a fixed amount of the PDE1 enzyml (sufficient to convert 20-25% of the cyclic nucleotide substrate), a buffer (50 mM HEPES pH 7.6; 10 mM MgCl2; 0.02% Tween20), 0.1 mg/ml BSA, 15 nM tritium labelled cAMP and varying amounts of inhibitors. Reactions were initiated by addition of the cyclic nucleotide substrate, and reactions were allowed to proceed for 1 h at room temperature before being terminated through mixing with 20 μL (0.2 mg) yttrium silicate SPA beads (PerkinElmer). The beads were allowed to settle for 1 h in the dark before the plates were counted in a Wallac 1450 Microbeta counter. The measured signals were converted to activity relative to an uninhibited control (100%) and IC50 values were calculated using XlFit (model 205, IDBS).

[2] = target: PDE1B (Homo sapiens, UniProt Q01064); assay: PDE1 inhibition assay (SPA), PDE1B
Protocol: as §1

[3] = target: PDE1A (Homo sapiens, UniProt P54750); assay: PDE1 inhibition assay (SPA), PDE1A
Protocol: as §1

Chain of PDE1B (Q01064 whole entry): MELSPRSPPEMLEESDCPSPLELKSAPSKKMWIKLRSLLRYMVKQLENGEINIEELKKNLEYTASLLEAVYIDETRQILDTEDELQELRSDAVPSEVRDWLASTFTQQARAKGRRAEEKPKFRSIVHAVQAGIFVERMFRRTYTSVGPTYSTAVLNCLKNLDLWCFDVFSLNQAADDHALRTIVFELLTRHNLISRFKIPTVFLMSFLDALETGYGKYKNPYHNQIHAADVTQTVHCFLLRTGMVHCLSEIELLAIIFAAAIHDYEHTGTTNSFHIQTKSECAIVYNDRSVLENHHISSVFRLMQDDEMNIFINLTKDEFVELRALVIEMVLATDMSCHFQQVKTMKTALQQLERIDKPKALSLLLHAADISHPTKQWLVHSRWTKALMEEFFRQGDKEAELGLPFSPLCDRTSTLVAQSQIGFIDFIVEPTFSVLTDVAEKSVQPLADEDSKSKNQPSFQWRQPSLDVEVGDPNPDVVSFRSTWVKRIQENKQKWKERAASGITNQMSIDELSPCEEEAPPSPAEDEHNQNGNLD
Chain of PDE1A (P54750 whole entry): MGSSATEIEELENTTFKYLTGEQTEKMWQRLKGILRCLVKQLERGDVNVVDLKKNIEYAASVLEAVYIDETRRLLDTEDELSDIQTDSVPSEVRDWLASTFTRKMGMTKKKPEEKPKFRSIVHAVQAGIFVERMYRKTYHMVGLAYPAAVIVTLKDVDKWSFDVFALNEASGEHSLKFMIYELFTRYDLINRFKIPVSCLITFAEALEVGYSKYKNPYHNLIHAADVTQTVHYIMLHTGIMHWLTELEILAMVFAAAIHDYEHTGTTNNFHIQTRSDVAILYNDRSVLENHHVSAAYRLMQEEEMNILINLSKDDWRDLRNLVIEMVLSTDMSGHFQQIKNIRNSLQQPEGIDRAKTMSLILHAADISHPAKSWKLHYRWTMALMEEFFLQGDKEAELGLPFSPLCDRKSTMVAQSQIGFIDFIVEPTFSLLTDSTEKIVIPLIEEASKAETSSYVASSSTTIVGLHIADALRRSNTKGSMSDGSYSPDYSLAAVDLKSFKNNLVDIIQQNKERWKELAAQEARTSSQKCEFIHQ
Chain of PDE1C (Q14123 whole entry): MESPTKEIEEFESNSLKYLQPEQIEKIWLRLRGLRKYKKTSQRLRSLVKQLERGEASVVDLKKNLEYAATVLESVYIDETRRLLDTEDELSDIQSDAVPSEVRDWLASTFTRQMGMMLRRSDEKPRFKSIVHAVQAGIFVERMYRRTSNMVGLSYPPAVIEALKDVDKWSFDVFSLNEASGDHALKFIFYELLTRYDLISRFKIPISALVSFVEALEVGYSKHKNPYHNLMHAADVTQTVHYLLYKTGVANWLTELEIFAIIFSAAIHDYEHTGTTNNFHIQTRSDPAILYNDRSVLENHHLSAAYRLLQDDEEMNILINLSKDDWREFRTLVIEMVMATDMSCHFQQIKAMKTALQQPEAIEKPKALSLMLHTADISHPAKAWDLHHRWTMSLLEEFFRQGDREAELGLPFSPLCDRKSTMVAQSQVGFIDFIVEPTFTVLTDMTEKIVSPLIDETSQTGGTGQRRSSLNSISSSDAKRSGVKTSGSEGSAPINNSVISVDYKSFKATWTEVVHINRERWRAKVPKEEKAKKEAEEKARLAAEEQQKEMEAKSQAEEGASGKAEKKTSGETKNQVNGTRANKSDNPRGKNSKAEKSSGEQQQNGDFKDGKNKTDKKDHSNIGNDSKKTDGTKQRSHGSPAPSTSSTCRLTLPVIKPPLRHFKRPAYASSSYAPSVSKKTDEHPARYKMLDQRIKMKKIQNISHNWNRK

| IC50 [1] | IC50 [2] | IC50 [3] | SMILES |
| --- | --- | --- | --- |
| 1300 nM | 260 nM | 2400 nM | COc1ccc2c(N[C@@H]3CCO[C@H]3C3CC3)ncnc2c1OC (relative stereo) [Compound 2, trans-N-(-2-cyclopropyltetrahydrofuran-3-yl)-7,8-dimethoxyquinazolin-4-amine] |
| 1300 nM | 260 nM | 2400 nM | COc1ccc2c(NC3CCOC3C3CC3)ncnc2c1OC (stereo not drawn) [Compound 25, N-(2-Cyclopropyltetrahydrofuran-3-yl)-7,8-dimethoxyquinazolin-4-amine] |
